Results on 22 compounds are retold here after PubChem BioAssay AID330 (DTP/NCI, 2004).

Structures are written as SMILES. Where “and” joins values, the source holds several entries; their conditions need not be identical. Identical values can stand only once. Toxic doses and inconclusive results are not listed.

The assay has as its system P388 leukemia ip, CD2F1 mice, survival T/C. The experiment in a line: NCI In Vivo Anticancer Drug Screen. Data for tumor model P388 Leukemia (intraperitoneal) in CD2F1 (CDF1) mice. The settings on record: endpoint: median survival time, higher = longer survival. In a few lines: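 Mice carrying the transplanted tumor received test compound or vehicle. Survival was recorded in each group, and the value is the treated-group measurement divided by that of the vehicle-treated control group.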

Setting [1] is: dose: 25.0 mg/kg/injection, schedule: Q04DX003 (ip), vehicle: saline with Tween-80.
Where [2] appears, read: dose: 50.0 mg/kg/injection, schedule: Q01DX009 (ip), vehicle: saline with Tween-80.
Where [3] appears, read: dose: 50.0 mg/kg/injection, schedule: Q04DX003 (ip), vehicle: saline with Tween-80.
The mark [4] stands for this setting: dose: 100.0 mg/kg/injection, schedule: Q01DX009 (ip), vehicle: saline with Tween-80.
Where [5] appears, read: dose: 100.0 mg/kg/injection, schedule: Q04DX003 (ip), vehicle: saline with Tween-80.
Where [6] appears, read: dose: 200.0 mg/kg/injection, schedule: Q01DX009 (ip), vehicle: saline with Tween-80.
Setting [7] is: dose: 50.0 mg/kg/injection, schedule: Q01DX009 (ip), vehicle: Klucel (hydroxypropylcellulose) (HPC).
The mark [8] stands for this setting: dose: 100.0 mg/kg/injection, schedule: Q01DX009 (ip), vehicle: Klucel (hydroxypropylcellulose) (HPC).
Setting [9] is: dose: 200.0 mg/kg/injection, schedule: Q01DX009 (ip), vehicle: Klucel (hydroxypropylcellulose) (HPC).
Where [10] appears, read: dose: 60.0 mg/kg/injection, schedule: Q01DX005 (ip), vehicle: saline with Tween-80.
[11] abbreviates: dose: 120.0 mg/kg/injection, schedule: Q01DX005 (ip), vehicle: saline with Tween-80.
Where [12] appears, read: dose: 240.0 mg/kg/injection, schedule: Q01DX005 (ip), vehicle: saline with Tween-80.

Take `COc1ccc(N=Nc2c(C)nn(C(=S)SC)c2C)cc1`: the T/C (dose: 100.0 mg/kg/injection, schedule: Q04DX002 (ip), vehicle: saline with Tween-80) is 100 % of control; the T/C (dose: 200.0 mg/kg/injection, schedule: Q04DX002 (ip), vehicle: saline with Tween-80) is 105 % of control; the T/C (dose: 400.0 mg/kg/injection, schedule: Q04DX002 (ip), vehicle: saline with Tween-80) is 109 % of control.

Take `COc1cccc(/C=C/c2ccnnc2)c1`: the T/C is 96 % of control (dose: 50.0 mg/kg/injection, schedule: Q01DX009 (ip), vehicle: saline); 95 % of control (dose: 100.0 mg/kg/injection, schedule: Q01DX009 (ip), vehicle: saline); 95 % of control (dose: 200.0 mg/kg/injection, schedule: Q01DX009 (ip), vehicle: saline).

For `CCOC(=O)c1cc(NO)c(=O)c2ccc(OC)cc2c1`, the T/C is 91 % of control (dose: 25.0 mg/kg/injection, schedule: Q01DX005 (ip), vehicle: saline with Tween-80); 90 % of control and 96 % of control (dose: 50.0 mg/kg/injection, schedule: Q01DX005 (ip), vehicle: saline with Tween-80); 89 % of control (dose: 100.0 mg/kg/injection, schedule: Q01DX005 (ip), vehicle: saline with Tween-80); 91 % of control (dose: 200.0 mg/kg/injection, schedule: Q01DX005 (ip), vehicle: saline with Tween-80).

Turning to `c1ccc(C23CC4CCCCC4CC2O3)cc1` (stereo not given), the T/C is 98 % of control (dose: 100.0 mg/kg/injection, schedule: Q04DX002 (ip), vehicle: Klucel (hydroxypropylcellulose) (HPC)); 111 % of control (dose: 200.0 mg/kg/injection, schedule: Q04DX002 (ip), vehicle: Klucel (hydroxypropylcellulose) (HPC)); 104 % of control (dose: 400.0 mg/kg/injection, schedule: Q04DX002 (ip), vehicle: Klucel (hydroxypropylcellulose) (HPC)).

Take `CCOC(=O)Nc1cc2c(c(N)n1)N=C(c1ccc(N)cc1)CN2`: where the note is “dose: 25.0 mg/kg/injection, schedule: Q01DX001 (ip), vehicle: saline”, the T/C is 117 % of control.

Regarding `C[Si](C)(C)N([Si](C)(C)C)[Si](C)(C)C`, the T/C was 97 % of control (dose: 50.0 mg/kg/injection, schedule: Q01DX009 (ip), vehicle: other); 98 % of control (dose: 100.0 mg/kg/injection, schedule: Q01DX009 (ip), vehicle: other); 100 % of control (dose: 200.0 mg/kg/injection, schedule: Q01DX009 (ip), vehicle: other).

In the case of `CC1CCCCC1(O)Cc1ccccc1` (stereo not given), the T/C is 108 % of control (dose: 50.0 mg/kg/injection, schedule: Q01DX005 (ip), vehicle: distilled water + alcohol); 101 % of control (dose: 100.0 mg/kg/injection, schedule: Q01DX005 (ip), vehicle: distilled water + alcohol); 105 % of control (dose: 200.0 mg/kg/injection, schedule: Q01DX005 (ip), vehicle: distilled water + alcohol).

As for `COC(=O)C(c1c(O)cc(C)oc1=O)C(C(=O)OC)c1c(O)cc(C)oc1=O` (stereo not given), the T/C is, setting by setting: (dose: 100.0 mg/kg/injection, schedule: Q04DX003 (ip), vehicle: Klucel (hydroxypropylcellulose) (HPC)) 96 % of control; (dose: 200.0 mg/kg/injection, schedule: Q04DX003 (ip), vehicle: Klucel (hydroxypropylcellulose) (HPC)) 95 % of control; (dose: 400.0 mg/kg/injection, schedule: Q04DX003 (ip), vehicle: Klucel (hydroxypropylcellulose) (HPC)) 96 % of control.

For the compound `O=C(Nc1ccc2cc(S(=O)(=O)O)ccc2c1)c1ccc(N=Nc2c(S(=O)(=O)O)cc3cc(S(=O)(=O)O)cc(NC(=O)c4ccccc4)c3c2O)cc1`, the T/C runs as follows: (dose: 25.0 mg/kg/injection, schedule: Q01DX009 (ip), vehicle: saline with Tween-80) 108 % of control; under setting [1], 91 % of control; under setting [2], 108 % of control; under setting [3], 87 % of control; under setting [4], 87 % of control; under setting [5], 95 % of control.

As to `c1cc2c3c(c1)c1cc4c(cc1c[n+]3CC2)OCO4`, the T/C runs as follows: (dose: 25.0 mg/kg/injection, schedule: Q01DX009 (ip), vehicle: other) 153 % of control; (dose: 25.0 mg/kg/injection, schedule: Q01DX009 (ip), vehicle: water) 91 % of control.

On to `CCN=C1SC2C(=O)N(C)C(S1)C(=O)N2C`, for which the T/C was 100 % of control (dose: 6.25 mg/kg/injection, schedule: Q04DX002 (ip), vehicle: saline); 103 % of control (dose: 12.5 mg/kg/injection, schedule: Q04DX002 (ip), vehicle: saline); 105 % of control (dose: 25.0 mg/kg/injection, schedule: Q04DX002 (ip), vehicle: saline).

For the compound `OC1(C#Cc2ccccc2)c2ccccc2C(O)(C#Cc2ccccc2)c2cnccc21` (stereo not given), the T/C reads like this: under setting [2], 95 % of control; under setting [4], 93 % of control; under setting [6], 87 % of control.

Regarding `CN1C(=O)[C@@H]2N(N(C)C1=O)[C@@]1(Br)C(=O)NC(=O)[C@@]21Br`, the T/C is 97 % of control (dose: 60.0 mg/kg/injection, schedule: Q01DX005 (ip), vehicle: Klucel (hydroxypropylcellulose) (HPC)); 100 % of control (dose: 120.0 mg/kg/injection, schedule: Q01DX005 (ip), vehicle: Klucel (hydroxypropylcellulose) (HPC)); 91 % of control (dose: 240.0 mg/kg/injection, schedule: Q01DX005 (ip), vehicle: Klucel (hydroxypropylcellulose) (HPC)).

As for `COC(=O)CNP(=O)(NCC(=O)OC)N(CCCl)CCCl`, the T/C (dose: 30.0 mg/kg/injection, schedule: Q01DX005 (ip), vehicle: saline) was 102 % of control; the T/C (dose: 60.0 mg/kg/injection, schedule: Q01DX005 (ip), vehicle: saline) is 115 % of control; the T/C (dose: 120.0 mg/kg/injection, schedule: Q01DX005 (ip), vehicle: saline) was 153 % of control and 161 % of control; the T/C (dose: 240.0 mg/kg/injection, schedule: Q01DX005 (ip), vehicle: saline) is 161 % of control and 238 % of control.

As to `CCOC(=O)NC(=S)C1=C(N2CCOCC2)CCC1`, the T/C was 106 % of control under setting [7], 122 % of control under setting [8] and 97 % of control under setting [9].

On to `NNC(=O)N/N=C/c1ccccc1Cl`, for which the T/C was 96 % of control (dose: 25.0 mg/kg/injection, schedule: Q01DX005 (ip), vehicle: Klucel (hydroxypropylcellulose) (HPC)) and 112 % of control (dose: 50.0 mg/kg/injection, schedule: Q01DX005 (ip), vehicle: Klucel (hydroxypropylcellulose) (HPC)).

Turning to `CSc1c(C)n2c3c(cccc13)CCC2`, the T/C is 108 % of control under setting [10], 96 % of control under setting [11] and 100 % of control under setting [12].

Turning to `CCCCC1CCC(=O)NC1=O` (stereo not given), the T/C under setting [10] is 107 % of control, the T/C under setting [11] was 103 % of control and the T/C under setting [12] was 107 % of control.

Take `CC(=O)Nc1ccc2c(c1)Cc1ccccc1-2`: the T/C is 100 % of control under setting [4]; 95 % of control under setting [6]; 95 % of control (dose: 400.0 mg/kg/injection, schedule: Q01DX009 (ip), vehicle: saline with Tween-80).

In the case of `CC(CC(=O)c1ccccc1)=NCC(O)CN=C(C)CC(=O)c1ccccc1.[Cu]` (stereo not given), the T/C by setting is: (dose: 12.5 mg/kg/injection, schedule: Q04DX003 (ip), vehicle: saline with Tween-80) 96 % of control; under setting [1], 93 % of control; under setting [3], 96 % of control; under setting [5], 94 % of control and 98 % of control; (dose: 200.0 mg/kg/injection, schedule: Q04DX003 (ip), vehicle: saline with Tween-80) 101 % of control and 92 % of control; (dose: 400.0 mg/kg/injection, schedule: Q04DX003 (ip), vehicle: saline with Tween-80) 96 % of control.

`COC(=O)C(=O)c1c(C(=O)OC)nc2nnc(N)n2c1-c1ccc(OC)cc1`: the T/C was 100 % of control under setting [10], 107 % of control under setting [11] and 96 % of control under setting [12].

Regarding `O=C1Nc2ccc(Br)cc2/C1=C/C(=O)c1ccccc1`, the T/C by setting is: under setting [7], 111 % of control; under setting [8], 101 % of control; under setting [9], 103 % of control.
